Activity calls are given as the source filed them. The rule behind the calls is not given here.
How the values were obtained:
[1] = system: Rattus norvegicus; test: In vivo antidyslipidemic activity against Triton WR 1339-induced hyperlipidemic Wistar rat model assessed as decrease in total cholesterol level in plasma at 56 umol/kg, ip administered as single dose 1 hr after Triton WR 1339 challenge measured after 24 hrs; type: functional
[2] = Antioxidant activity in rat liver microsome membrane assessed as inhibition of lipid peroxidation after 45 mins by TBARS-based spectrophotometric assay; type: functional, microsomes
[3] = system: Mus musculus; test: Antidyslipidemic activity in chronic high-fat diet (2.5 w/w cholesterol, 0.5% w/w cholic acid, 10% w/w peanut oil) fed SKH-2 mouse assessed as decrease in LDL level in plasma at 56 umol/kg, ip bid for 21 days; type: functional; conditions: SKH-2, Plasma, 504 h
[4] = system: Mus musculus; test: Effect on food intake in chronic high-fat diet (2.5 w/w cholesterol, 0.5% w/w cholic acid, 10% w/w peanut oil) fed SKH-2 mouse at 56 umol/kg, ip bid for 30 days; type: ADME, organism-based; conditions: in vivo, 720 h
[5] = system: Mus musculus; test: Antidyslipidemic activity in chronic high-fat diet (2.5 w/w cholesterol, 0.5% w/w cholic acid, 10% w/w peanut oil) fed SKH-2 mouse assessed as decrease in LDL level in plasma at 56 umol/kg, ip bid for 30 days measured on day 30; type: functional; conditions: SKH-2, Plasma, 720 h
[6] = system: Rattus norvegicus; test: In vivo antidyslipidemic activity against Triton WR 1339-induced hyperlipidemic Wistar rat model assessed as decrease in triglyceride level in plasma at 56 umol/kg, ip administered as single dose 1 hr after Triton WR 1339 challenge measured after 24 hrs; type: functional
[7] = system: Mus musculus; test: Antiatherosclerotic activity in apoE-/- transgenic mouse assessed as decrease in primary atherosclerotic lesions administered for 3.5 months; type: functional, organism-based
[8] = system: Mus musculus; test: Hepatotoxicity in apoE-/- transgenic mouse assessed as liver enzymes level administered for 3.5 months; type: toxicity, organism-based; conditions: in vivo
[9] = system: Mus musculus; test: Antidyslipidemic activity in chronic high-fat diet (2.5 w/w cholesterol, 0.5% w/w cholic acid, 10% w/w peanut oil) fed SKH-2 mouse assessed as increase in HDL level in plasma at 56 umol/kg, ip bid for 30 days measured on day 30; type: functional
[10] = system: Mus musculus; test: Effect on body weight in chronic high-fat diet (2.5 w/w cholesterol, 0.5% w/w cholic acid, 10% w/w peanut oil) fed SKH-2 mouse at 56 umol/kg, ip bid for 30 days; type: ADME, organism-based; conditions: in vivo, 720 h
[11] = system: Glycine max; test: Inhibition of soybean lipoxygenase using sodium linoleate as substrate up to 100 uM measured for 6 mins
[12] = system: Radical scavenging activity; test: Antioxidant activity assessed as DPPH radical scavenging activity after 30 mins; type: functional
[13] = system: Mus musculus; test: Effect on blood glucose level in chronic high-fat diet (2.5 w/w cholesterol, 0.5% w/w cholic acid, 10% w/w peanut oil) fed SKH-2 mouse at 56 umol/kg, ip bid for 30 days; type: ADME, organism-based; conditions: in vivo, 720 h
[14] = system: Mus musculus; test: Antidyslipidemic activity in chronic high-fat diet (2.5 w/w cholesterol, 0.5% w/w cholic acid, 10% w/w peanut oil) fed SKH-2 mouse assessed as HDL/LDL ratio in plasma at 56 umol/kg, ip bid for 30 days measured on day 30 (reference value: 0.2 no unit); type: functional
[15] = target: T1, Squalene synthase (Rattus norvegicus, UniProt Q02769); test: (§1) Inhibition of squalene synthase in rat liver microsomes assessed as decrease in conversion of [3H]FPP to squalene
T1 sequence (Q02769 whole entry): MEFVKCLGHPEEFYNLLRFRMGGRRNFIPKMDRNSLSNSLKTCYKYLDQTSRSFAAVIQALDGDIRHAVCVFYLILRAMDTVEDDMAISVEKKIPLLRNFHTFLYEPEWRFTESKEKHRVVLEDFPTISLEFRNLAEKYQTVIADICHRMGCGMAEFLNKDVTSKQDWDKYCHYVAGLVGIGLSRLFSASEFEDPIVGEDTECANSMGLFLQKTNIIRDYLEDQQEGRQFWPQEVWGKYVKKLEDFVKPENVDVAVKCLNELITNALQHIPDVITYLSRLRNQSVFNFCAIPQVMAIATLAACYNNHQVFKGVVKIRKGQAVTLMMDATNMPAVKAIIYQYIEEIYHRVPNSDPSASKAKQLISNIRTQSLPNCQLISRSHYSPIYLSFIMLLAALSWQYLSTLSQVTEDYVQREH

[16] = target: T2, Squalene synthase (Rattus norvegicus) (UniProt Q02769); test: as §1
T2 sequence (whole entry): T1 sequence (Q02769 whole entry)

[17] = system: Rattus norvegicus; test: In vivo antidyslipidemic activity against Triton WR 1339-induced hyperlipidemic Wistar rat model assessed as decrease in LDL-cholesterol level in plasma at 56 umol/kg, ip administered as single dose 1 hr after Triton WR 1339 challenge measured after 24 hrs; type: functional
[18] = system: Mus musculus; test: Antidyslipidemic activity in chronic high-fat diet (2.5 w/w cholesterol, 0.5% w/w cholic acid, 10% w/w peanut oil) fed SKH-2 mouse assessed as triglyceride level in plasma at 56 umol/kg, ip bid for 30 days measured on day 30; type: functional, organism-based
[19] = system: Mus musculus; test: Antidyslipidemic activity in chronic high-fat diet (2.5 w/w cholesterol, 0.5% w/w cholic acid, 10% w/w peanut oil) fed SKH-2 mouse assessed as decrease in total cholesterol level in plasma at 56 umol/kg, ip bid for 30 days measured on day 30; type: functional; conditions: SKH-2, Plasma, 720 h
[20] = target: T3, Prostaglandin G/H synthase 1 (Bos taurus) (UniProt O62664); test: Inhibition of bovine COX-1 assessed as PGF2-alpha formation using arachidonic acid as substrate at 20 uM by enzyme immunoassay
T3 sequence (whole entry): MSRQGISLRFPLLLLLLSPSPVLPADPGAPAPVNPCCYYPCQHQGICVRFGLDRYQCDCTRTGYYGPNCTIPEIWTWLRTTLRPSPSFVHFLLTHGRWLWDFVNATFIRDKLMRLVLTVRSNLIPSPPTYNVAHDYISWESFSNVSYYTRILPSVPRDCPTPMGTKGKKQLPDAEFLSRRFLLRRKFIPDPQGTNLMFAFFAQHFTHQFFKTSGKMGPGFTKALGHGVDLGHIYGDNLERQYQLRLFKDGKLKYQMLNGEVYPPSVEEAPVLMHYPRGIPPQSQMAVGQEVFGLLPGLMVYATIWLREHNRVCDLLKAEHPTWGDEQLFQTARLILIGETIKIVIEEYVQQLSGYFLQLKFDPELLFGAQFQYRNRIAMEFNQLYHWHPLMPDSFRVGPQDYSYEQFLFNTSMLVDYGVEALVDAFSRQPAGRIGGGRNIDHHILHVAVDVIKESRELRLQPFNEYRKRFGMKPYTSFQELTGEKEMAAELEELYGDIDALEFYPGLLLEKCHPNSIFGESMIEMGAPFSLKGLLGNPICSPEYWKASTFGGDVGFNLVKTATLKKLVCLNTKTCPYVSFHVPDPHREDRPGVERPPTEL

[21] = system: Radical scavenging activity; test: Antioxidant activity assessed as DPPH radical scavenging activity up to 50 uM measured within 15 mins; type: functional
[22] = system: Mus musculus; test: Antidyslipidemic activity in chronic high-fat diet (2.5 w/w cholesterol, 0.5% w/w cholic acid, 10% w/w peanut oil) fed SKH-2 mouse assessed as decrease in total cholesterol level in plasma at 56 umol/kg, ip bid for 21 days; type: functional; conditions: SKH-2, Plasma, 504 h

IC50 [2]: 0.47 µM
inhibition [11]: inactive
IC50 [12]: 191 µM
IC50 [15]: 5 µM
inhibition [16]: Dose-dependent effect
inhibition [20]: 92%
Compound: CN1CCOC(O)(c2ccc3c(c2)Nc2ccccc2S3)C1 (racemic)
inhibition in vivo at 56 µmol/kg [1]: 70%
inhibition in vivo at 56 µmol/kg [3]: 58%
Activity [4]: Non-toxic
inhibition in vivo at 56 µmol/kg [5]: 76%
inhibition in vivo at 56 µmol/kg [6]: 94%
inhibition [7]: Active
Activity [8]: Non-toxic
Activity [9]: 120%
Activity [10]: Non-toxic
Activity [13]: Non-toxic
Ratio [14]: 1.2
inhibition in vivo at 56 µmol/kg [17]: 80%
Activity [18]: inactive
inhibition in vivo at 56 µmol/kg [19]: 53%
Activity [21]: Active
inhibition in vivo at 56 µmol/kg [22]: 45%

From ChEMBL document CHEMBL3232866, “Design of novel potent antihyperlipidemic agents with antioxidant/anti-inflammatory properties: exploiting phenothiazine's strong antioxidant activity” (J Med Chem, 2014)
